For assay [1], the system named is MCF-10A. Kind of assay: Cytotoxicity against human MCF-10A cells assessed as inhibition of cell viability after 72 hrs by CCK-8 assay. The assay is classed as cell-based. (In general: Tetrazolium assays rely on reduction of a dye to a coloured formazan, in cell work by metabolically active cells.)
Assay [2] deals with MCF7. The experiment in a line: Induction of apoptosis in human MCF7 cells assessed as increase in p53 expression measured at 3 to 12 uM after 48 hrs by Western blot analysis. The assay is classed as functional, cell-based. The conditions noted are these: dose 3-12 µM.
For assay [3], the system named is MCF7. The experiment in a line: Induction of apoptosis in human MCF7 cells assessed as increase in ratio of Bax to Bcl2 level measured at 3 to 12 uM after 48 hrs by Western blot analysis. The assay is classed as functional, cell-based. Particulars: dose 3-12 µM. A general note: Immunoblotting shows a protein as a band on a membrane.
Assay [4] has as its system MCF7. The experiment in a line: Decrease in Bcl-2 expression in human MCF7 cells at 3 to 12 uM measured after 48 hrs by Western blot analysis. It is filed as functional, cell-based. Particulars: dose 3-12 µM.
In assay [5] the test system is MCF7. The experiment in a line: Induction of apoptosis in human MCF7 cells at 3 uM measured after 48 hrs by Annexin V-FITC and propidium iodide staining based flow cytometry (reference value: 4.88%). The assay is classed as functional.
Assay [6] has as its system MCF7. Kind of assay: Induction of apoptosis in human MCF7 cells at 6 uM measured after 72 hrs by Annexin V-FITC and propidium iodide staining based flow cytometry (Rvb =4.62%). The assay is classed as functional. On the technique in general: A flow cytometer gives signals particle by particle.
Assay [7] deals with BGC-823. The experiment in a line: Antiproliferative activity against human BGC-823 cells assessed as inhibition of cell viability after 72 hrs by CCK-8 assay. It is filed as functional, cell-based. The conditions noted are these: BGC-823, 72 h.
The subject of assay [8] is MCF7. The experiment in a line: Induction of apoptosis in human MCF7 cells assessed as increase in p53 phosphorylation at Ser15 residue at 3 to 12 uM measured after 48 hrs by Western blot analysis. The assay is classed as functional, cell-based. Particulars: dose 3-12 µM.
Assay [9] relates to MCF7. Kind of assay: Induction of apoptosis in human MCF7 cells at 6 uM measured after 48 hrs by Annexin V-FITC and propidium iodide staining based flow cytometry (Rvb =4.88%). It is filed as functional.
Assay [10] has as its system MCF7. The experiment in a line: Induction of cell cycle arrest in human MCF7 cells assessed as decrease in cyclin D1 protein expression expression at 3 to 12 uM after 48 hrs by Western blot analysis. The assay is classed as functional, cell-based. Particulars: dose 3-12 µM.
Assay [11] has as its system PC-3. The experiment in a line: Antiproliferative activity against human PC-3 cells assessed as inhibition of cell viability after 72 hrs by CCK-8 assay. It is filed as functional, cell-based. Particulars: PC-3, 72 h.
The subject of assay [12] is MCF7. Kind of assay: Antiproliferative activity against human MCF7 cells assessed as inhibition of cell viability after 72 hrs by CCK-8 assay. It is filed as functional, cell-based. The conditions noted are these: MCF7, 72 h.
Assay [13] concerns the target T1, Progesterone receptor (Homo sapiens) (UniProt P06401).
T1 sequence (whole entry): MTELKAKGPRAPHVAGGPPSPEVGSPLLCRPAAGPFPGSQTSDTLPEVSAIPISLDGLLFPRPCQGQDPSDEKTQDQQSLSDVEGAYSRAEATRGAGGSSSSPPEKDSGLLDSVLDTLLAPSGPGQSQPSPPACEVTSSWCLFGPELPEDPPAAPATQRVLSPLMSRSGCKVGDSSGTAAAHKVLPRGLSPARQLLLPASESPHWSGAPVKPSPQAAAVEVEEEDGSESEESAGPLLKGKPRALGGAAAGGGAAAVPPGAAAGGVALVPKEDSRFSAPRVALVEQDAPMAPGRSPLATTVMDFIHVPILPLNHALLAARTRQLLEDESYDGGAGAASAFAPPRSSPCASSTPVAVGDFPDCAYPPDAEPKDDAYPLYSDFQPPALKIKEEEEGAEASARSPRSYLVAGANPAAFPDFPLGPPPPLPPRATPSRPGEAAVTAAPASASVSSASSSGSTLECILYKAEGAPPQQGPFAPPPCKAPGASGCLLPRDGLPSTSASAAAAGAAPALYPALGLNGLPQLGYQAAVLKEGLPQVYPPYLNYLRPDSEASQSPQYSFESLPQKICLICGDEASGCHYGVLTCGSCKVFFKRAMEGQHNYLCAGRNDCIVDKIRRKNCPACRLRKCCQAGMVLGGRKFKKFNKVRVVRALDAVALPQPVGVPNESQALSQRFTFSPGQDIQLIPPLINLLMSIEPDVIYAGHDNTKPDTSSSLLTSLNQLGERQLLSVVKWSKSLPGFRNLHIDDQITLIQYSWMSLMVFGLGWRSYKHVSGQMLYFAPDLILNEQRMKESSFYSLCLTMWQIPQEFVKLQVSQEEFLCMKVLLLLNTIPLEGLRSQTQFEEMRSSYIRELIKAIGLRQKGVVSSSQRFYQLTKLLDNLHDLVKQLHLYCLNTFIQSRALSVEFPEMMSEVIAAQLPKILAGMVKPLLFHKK
The experiment in a line: Antagonist activity at PR in human T47D cells assessed as inhibition of progesterone-induced alkaline phosphatase activity by alkaline phosphatase assay. The assay is classed as cell-based. The conditions noted are these: filed as antagonist.

In assay [14] the test system is MCF7. Kind of assay: Induction of apoptosis in human MCF7 cells assessed as increase in cleaved caspase-3 level at 3 to 12 uM measured after 24 to 72 hrs by flow cytometry. It is filed as functional, cell-based. The conditions noted are these: dose 3-12 µM, time 24-72 hrs.
The test system of assay [15] is MCF7. The experiment in a line: Induction of apoptosis in human MCF7 cells at 6 uM measured after 24 hrs by Annexin V-FITC and propidium iodide staining based flow cytometry (Rvb =3.54%). The assay is classed as functional.
The subject of assay [16] is A549. Kind of assay: Antiproliferative activity against human A549 cells assessed as inhibition of cell viability after 72 hrs by CCK-8 assay. The assay is classed as functional, cell-based. The conditions noted are these: A549, 72 h.
Assay [17] deals with MCF7. The experiment in a line: Induction of cell cycle arrest in human MCF7 cells assessed as decrease in CDK4 protein expression at 3 to 12 uM after 48 hrs by Western blot analysis. It is filed as functional, cell-based. Particulars: dose 3-12 µM.
Assay [18] is described as follows: Selectivity index, ratio of IC50 for human MCF-10A cells to IC50 for human MCF-7 cells.
For assay [19], the system named is MDA-MB-231. The experiment in a line: Antiproliferative activity against human MDA-MB-231 cells assessed as inhibition of cell viability after 72 hrs by CCK-8 assay. It is filed as functional, cell-based. The conditions noted are these: MDA-MB-231, 72 h.
Assay [20] relates to MCF7. Kind of assay: Induction of cell cycle arrest in human MCF7 cells assessed as increase in p21 protein expression after 48 hrs by Western blot analysis. The assay is classed as functional, cell-based. Particulars: dose 3-12 µM.
Assay [21] concerns MCF7. The experiment in a line: Induction of apoptosis in human MCF7 cells assessed as increase in Bax expression at 3 to 12 uM measured after 48 hrs by Western blot analysis. The conditions noted are these: dose 3-12 µM. It is filed as functional, cell-based.
The subject of assay [22] is MCF7. Kind of assay: Induction of apoptosis in human MCF7 cells at 12 uM measured after 48 hrs by Annexin V-FITC and propidium iodide staining based flow cytometry (Rvb =4.88%). It is filed as functional.
Assay [23] relates to MCF7. Kind of assay: Antiproliferative activity against human MCF7 cells assessed as cell growth inhibition at 6 uM by CCK-8 assay. It is filed as functional, cell-based. Particulars: time 24-72 hrs, TDE = time-dependent effect.

The source made the active and inactive calls. The rule behind the calls is not given here.

On to `COc1ccccc1C1Oc2ccccc2-c2cc(OCc3ccccc3)c(OCc3ccccc3)cc21` (stereo unspecified), for which the IC50 in assay [1] is 51.3 µM; in assay [7], 7.82 µM; in [11] it was 7.5 µM; in assay [12], 5.71 µM; in assay [16] it was 10 µM; in assay [19], 9.15 µM. In addition, the result in assay [2], in assay [3], in assay [8], in assay [10], in assay [14] and in assay [17] was Active. The result in assay [21] was Active. Besides, the inhibition result in [4] and in [13] was “Active” each time. For the same molecule, the Activity in [5] was 11.71%; in [6], 36.93%; in [9], 22.97%; in [15], 13.95%; in [20], “Dose-dependent effect”; in [22], 32.56%. The Activity result in assay [23] is “Tde”. Moreover, in assay [18], the “Ratio IC50” value turned out to be 8.98.
On to `COc1cc2c(cc1OC)C(c1ccccc1OC)Oc1ccccc1-2` (stereo unspecified), for which the IC50 in assay [1] came to 48.9 µM; in [7], 9.1 µM; in [11] it was 9.32 µM; in assay [12], 6.32 µM; in assay [16], 13.2 µM; in [19], 8.4 µM. For the same molecule, the outcome in assay [2], in [3], in assay [8], in assay [10], in [14] and in [17] was Active. Besides, the outcome in [21] was Active. For the same molecule, the inhibition entry in [4] and in assay [13] was “Active” throughout. In addition, the Activity in [5] was 12.98%; in assay [6], 34.38%; in assay [9] it was 18.87%; in assay [15], 11.91%; in [20] it was “Dose-dependent effect”; in [22], 31.22%. For the same molecule, the Activity result in [23] is “Tde”. Besides, in assay [18], the “Ratio IC50” value came out at 7.73.

A word on the IC50: it is the concentration that gives 50% inhibition.

For the origin of these results see ChEMBL document CHEMBL4680352, “Rational design and synthesis of 6-aryl-6H-benzo[c]chromenes as non-steroidal progesterone receptor antagonists for use against cancers” (Bioorg Med Chem, 2021).
